Results reported in patent publication US20230085307A1, “PYRIDAZINONE COMPOUND AND HERBICIDE” (NISSAN CHEMICAL CORPORATION, priority 2019, published 2023).

Legend:
velvetleaf [1] = test: Test Example 4: herbicidal effect by soil treatment (Table 19, symbol M); format: in vivo, velvetleaf (Abutilon theophrasti); conditions: amount of applied herbicide 320 g/ha
Procedure, shortened: (§1)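 Soil-surface application: an emulsion agent diluted with water to the predetermined dose is sprayed uniformly over seeds lying under roughly 1.5 cm of sterilized diluvial soil. Boxes stay in a greenhouse at 25° C. to 30° C. Three weeks later, each species is graded on previously defined criteria.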

Chinese sprangletop = test: Test Example 3: herbicidal effect by foliage application, Wagner pot (Table 18, symbol D); format: in vivo, chinese sprangletop (Leptochloa chinensis); conditions: 320 g/ha
Procedure, shortened: (§2)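 Plants were sown in alluvial soil held under 0.1–0.5 cm standing water and grown 14 days in a greenhouse at 25–30 °C. An emulsifiable formulation, water-diluted to the set dose, was then sprayed onto the foliage, and effects were scored three weeks later using previously defined criteria.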

rice flat sedge = test: Test Example 3: herbicidal effect by foliage application, Wagner pot (Table 18, symbol E); format: in vivo, rice flat sedge (Cyperus iria); conditions: 320 g/ha
Procedure, shortened: as §2

wild oat [2] = test: Test Example 5: herbicidal effect by foliage application, plastic box (Table 20, symbol I); format: in vivo, wild oat (Avena fatua); conditions: foliage application after 14-day growth, evaluated three weeks after application
Procedure, shortened: (§3)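 Sow seeds spot-wise in sterilized diluvial soil; cover with ~1.5 cm soil. Grow 14 days in greenhouse, 25° C. to 30° C. Spray foliage with emulsion diluted to predetermined amount. Rate effect after 3 weeks.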

southern crabgrass [3] = test: Test Example 4: herbicidal effect by soil treatment (Table 19, symbol F); format: in vivo, southern crabgrass (Digitaria ciliaris); conditions: amount of applied herbicide 320 g/ha
Procedure, shortened: as §1

velvetleaf [4] = test: Test Example 5: herbicidal effect by foliage application, plastic box (Table 20, symbol M); format: in vivo, velvetleaf (Abutilon theophrasti); conditions: foliage application after 14-day growth, evaluated three weeks after application
Procedure, shortened: as §3

blackgrass [5] = test: Test Example 5: herbicidal effect by foliage application, plastic box (Table 20, symbol J); format: in vivo, blackgrass (Alopecurus myosuroides); conditions: foliage application after 14-day growth, evaluated three weeks after application
Procedure, shortened: as §3

Italian ryegrass [6] = test: Test Example 5: herbicidal effect by foliage application, plastic box (Table 20, symbol K); format: in vivo, Italian ryegrass (Lolium multiflorum); conditions: foliage application after 14-day growth, evaluated three weeks after application
Procedure, shortened: as §3

barnyard grass [7] = test: Test Example 4: herbicidal effect by soil treatment (Table 19, symbol H); format: in vivo, barnyard grass (Echinochloa crus-galli); conditions: amount of applied herbicide 320 g/ha
Procedure, shortened: as §1

lambsquarters [8] = test: Test Example 4: herbicidal effect by soil treatment (Table 19, symbol O); format: in vivo, lambsquarters (Chenopodium album); conditions: amount of applied herbicide 320 g/ha
Procedure, shortened: as §1

green foxtail [9] = test: Test Example 5: herbicidal effect by foliage application, plastic box (Table 20, symbol G); format: in vivo, green foxtail (Setaria viridis); conditions: foliage application after 14-day growth, evaluated three weeks after application
Procedure, shortened: as §3

southern crabgrass [10] = test: Test Example 5: herbicidal effect by foliage application, plastic box (Table 20, symbol F); format: in vivo, southern crabgrass (Digitaria ciliaris); conditions: foliage application after 14-day growth, evaluated three weeks after application
Procedure, shortened: as §3

redroot pigweed [11] = test: Test Example 5: herbicidal effect by foliage application, plastic box (Table 20, symbol N); format: in vivo, redroot pigweed (Amaranthus retroflexus); conditions: foliage application after 14-day growth, evaluated three weeks after application
Procedure, shortened: as §3

windgrass [12] = test: Test Example 5: herbicidal effect by foliage application, plastic box (Table 20, symbol L); format: in vivo, windgrass (Apera spica-venti); conditions: foliage application after 14-day growth, evaluated three weeks after application
Procedure, shortened: as §3

Italian ryegrass [13] = test: Test Example 4: herbicidal effect by soil treatment (Table 19, symbol K); format: in vivo, Italian ryegrass (Lolium multiflorum); conditions: amount of applied herbicide 320 g/ha
Procedure, shortened: as §1

barnyard grass [14] = test: Test Example 5: herbicidal effect by foliage application, plastic box (Table 20, symbol H); format: in vivo, barnyard grass (Echinochloa crus-galli); conditions: foliage application after 14-day growth, evaluated three weeks after application
Procedure, shortened: as §3

persian speedwell [15] = test: Test Example 5: herbicidal effect by foliage application, plastic box (Table 20, symbol R); format: in vivo, Persian speedwell (Veronica persica); conditions: foliage application after 14-day growth, evaluated three weeks after application
Procedure, shortened: as §3

chickweed [16] = test: Test Example 4: herbicidal effect by soil treatment (Table 19, symbol P); format: in vivo, common chickweed (Stellaria media); conditions: amount of applied herbicide 320 g/ha
Procedure, shortened: as §1

windgrass [17] = test: Test Example 4: herbicidal effect by soil treatment (Table 19, symbol L); format: in vivo, windgrass (Apera spica-venti); conditions: amount of applied herbicide 320 g/ha
Procedure, shortened: as §1

wild oat [18] = test: Test Example 4: herbicidal effect by soil treatment (Table 19, symbol I); format: in vivo, wild oat (Avena fatua); conditions: amount of applied herbicide 320 g/ha
Procedure, shortened: as §1

lambsquarters [19] = test: Test Example 5: herbicidal effect by foliage application, plastic box (Table 20, symbol O); format: in vivo, lambsquarters (Chenopodium album); conditions: foliage application after 14-day growth, evaluated three weeks after application
Procedure, shortened: as §3

chickweed [20] = test: Test Example 5: herbicidal effect by foliage application, plastic box (Table 20, symbol P); format: in vivo, common chickweed (Stellaria media); conditions: foliage application after 14-day growth, evaluated three weeks after application
Procedure, shortened: as §3

redroot pigweed [21] = test: Test Example 4: herbicidal effect by soil treatment (Table 19, symbol N); format: in vivo, redroot pigweed (Amaranthus retroflexus); conditions: amount of applied herbicide 320 g/ha
Procedure, shortened: as §1

blackgrass [22] = test: Test Example 4: herbicidal effect by soil treatment (Table 19, symbol J); format: in vivo, blackgrass (Alopecurus myosuroides); conditions: amount of applied herbicide 320 g/ha
Procedure, shortened: as §1

persian speedwell [23] = test: Test Example 4: herbicidal effect by soil treatment (Table 19, symbol R); format: in vivo, Persian speedwell (Veronica persica); conditions: amount of applied herbicide 320 g/ha
Procedure, shortened: as §1

barnyard grass [24] = test: Test Example 3: herbicidal effect by foliage application, Wagner pot (Table 18, symbol H); format: in vivo, barnyard grass (Echinochloa crus-galli); conditions: 320 g/ha
Procedure, shortened: as §2

green foxtail [25] = test: Test Example 4: herbicidal effect by soil treatment (Table 19, symbol G); format: in vivo, green foxtail (Setaria viridis); conditions: amount of applied herbicide 320 g/ha
Procedure, shortened: as §1

[26] = amount of applied herbicide 320 g/ha

## CCCC(=O)Oc1c(C)nn(C)c(=O)c1-c1c(-c2ccccc2F)sc2c(Cl)cccc12 [4-059]
Velvetleaf [1]
  Herbicidal effect by soil treatment, M: velvetleaf: 0 (Herbicidal rate of 5% or less (almost no effect))
Chinese sprangletop
  herbicidal effect on Chinese sprangletop (D): 4 (Herbicidal rate of 70% or more and less than 90%)
Rice flat sedge
  herbicidal effect on rice flat sedge (E): 4 (Herbicidal rate of 70% or more and less than 90%)
Wild oat [2]; 320 g/ha
  herbicidal effect on I: wild oat (evaluation grade 0-5): 1 (Herbicidal rate of 5% or more and less than 20%)
Southern crabgrass [3]
  Herbicidal effect by soil treatment, F: southern crabgrass: 0 (Herbicidal rate of 5% or less (almost no effect))
Velvetleaf [4]; 320 g/ha
  herbicidal effect on M: velvetleaf (evaluation grade 0-5): 3 (Herbicidal rate of 40% or more and less than 70%)
Blackgrass [5]; 320 g/ha
  herbicidal effect on J: blackgrass (evaluation grade 0-5): 0 (Herbicidal rate of 5% or less (almost no effect))
Italian ryegrass [6]; 320 g/ha
  herbicidal effect on K: Italian ryegrass (evaluation grade 0-5): 0 (Herbicidal rate of 5% or less (almost no effect))
Barnyard grass [7]
  Herbicidal effect by soil treatment, H: barnyard grass: 0 (Herbicidal rate of 5% or less (almost no effect))
Lambsquarters [8]
  Herbicidal effect by soil treatment, O: lambsquarters: 0 (Herbicidal rate of 5% or less (almost no effect))
Green foxtail [9]; 320 g/ha
  herbicidal effect on G: green foxtail (evaluation grade 0-5): 0 (Herbicidal rate of 5% or less (almost no effect))
Southern crabgrass [10]; 320 g/ha
  herbicidal effect on F: southern crabgrass (evaluation grade 0-5): 0 (Herbicidal rate of 5% or less (almost no effect))
Redroot pigweed [11]; 320 g/ha
  herbicidal effect on N: redroot pigweed (evaluation grade 0-5): 3 (Herbicidal rate of 40% or more and less than 70%)
Windgrass [12]; 320 g/ha
  herbicidal effect on L: windgrass (evaluation grade 0-5): 0 (Herbicidal rate of 5% or less (almost no effect))
Italian ryegrass [13]
  Herbicidal effect by soil treatment, K: Italian ryegrass: 0 (Herbicidal rate of 5% or less (almost no effect))
Barnyard grass [14]; 320 g/ha
  herbicidal effect on H: barnyard grass (evaluation grade 0-5): 0 (Herbicidal rate of 5% or less (almost no effect))
Persian speedwell [15]; 320 g/ha
  herbicidal effect on R: persian speedwell (evaluation grade 0-5): 4 (Herbicidal rate of 70% or more and less than 90%)
Chickweed [16]
  Herbicidal effect by soil treatment, P: chickweed: 4 (Herbicidal rate of 70% or more and less than 90%)
Windgrass [17]
  Herbicidal effect by soil treatment, L: windgrass: 0 (Herbicidal rate of 5% or less (almost no effect))
Wild oat [18]
  Herbicidal effect by soil treatment, I: wild oat: 0 (Herbicidal rate of 5% or less (almost no effect))
Lambsquarters [19]; 320 g/ha
  herbicidal effect on O: lambsquarters (evaluation grade 0-5): 2 (Herbicidal rate of 20% or more and less than 40%)
Chickweed [20]; 320 g/ha
  herbicidal effect on P: chickweed (evaluation grade 0-5): 5 (Herbicidal rate of 90% or more (almost completely withered))
Redroot pigweed [21]
  Herbicidal effect by soil treatment, N: redroot pigweed: 0 (Herbicidal rate of 5% or less (almost no effect))
Blackgrass [22]
  Herbicidal effect by soil treatment, J: blackgrass: 0 (Herbicidal rate of 5% or less (almost no effect))
Persian speedwell [23]
  Herbicidal effect by soil treatment, R: persian speedwell: 4 (Herbicidal rate of 70% or more and less than 90%)
Barnyard grass [24]
  herbicidal effect on barnyard grass (H): 4 (Herbicidal rate of 70% or more and less than 90%)
Green foxtail [25]
  Herbicidal effect by soil treatment, G: green foxtail: 0 (Herbicidal rate of 5% or less (almost no effect))

## Cc1nn(C)c(=O)c(-c2c(-c3ccc(OC(F)(F)F)cc3)sc3c(C)cccc23)c1O [4-130]
Velvetleaf [1]
  M: velvetleaf, herbicidal effect grade: 2 (Herbicidal rate of 20% or more and less than 40%)
Chinese sprangletop
  herbicidal effect on Chinese sprangletop (D): 0 (Herbicidal rate of 5% or less (almost no effect))
Rice flat sedge
  herbicidal effect on rice flat sedge (E): 4 (Herbicidal rate of 70% or more and less than 90%)
Wild oat [2]; [26]
  Herbicidal effect by foliage application, I: wild oat: 0 (Herbicidal rate of 5% or less (almost no effect))
Southern crabgrass [3]
  F: southern crabgrass, herbicidal effect grade: 0 (Herbicidal rate of 5% or less (almost no effect))
Velvetleaf [4]; [26]
  Herbicidal effect by foliage application, M: velvetleaf: 4 (Herbicidal rate of 70% or more and less than 90%)
Blackgrass [5]; [26]
  Herbicidal effect by foliage application, J: blackgrass: 3 (Herbicidal rate of 40% or more and less than 70%)
Italian ryegrass [6]; [26]
  Herbicidal effect by foliage application, K: Italian ryegrass: 3 (Herbicidal rate of 40% or more and less than 70%)
Barnyard grass [7]
  H: barnyard grass, herbicidal effect grade: 0 (Herbicidal rate of 5% or less (almost no effect))
Lambsquarters [8]
  O: lambsquarters, herbicidal effect grade: 1 (Herbicidal rate of 5% or more and less than 20%)
Green foxtail [9]; [26]
  Herbicidal effect by foliage application, G: green foxtail: 0 (Herbicidal rate of 5% or less (almost no effect))
Southern crabgrass [10]; [26]
  Herbicidal effect by foliage application, F: southern crabgrass: 0 (Herbicidal rate of 5% or less (almost no effect))
Redroot pigweed [11]; [26]
  Herbicidal effect by foliage application, N: redroot pigweed: 5 (Herbicidal rate of 90% or more (almost completely withered))
Windgrass [12]; [26]
  Herbicidal effect by foliage application, L: windgrass: 3 (Herbicidal rate of 40% or more and less than 70%)
Italian ryegrass [13]
  K: Italian ryegrass, herbicidal effect grade: 0 (Herbicidal rate of 5% or less (almost no effect))
Barnyard grass [14]; [26]
  Herbicidal effect by foliage application, H: barnyard grass: 0 (Herbicidal rate of 5% or less (almost no effect))
Persian speedwell [15]; [26]
  Herbicidal effect by foliage application, R: persian speedwell: 5 (Herbicidal rate of 90% or more (almost completely withered))
Chickweed [16]
  P: chickweed, herbicidal effect grade: 1 (Herbicidal rate of 5% or more and less than 20%)
Windgrass [17]
  L: windgrass, herbicidal effect grade: 0 (Herbicidal rate of 5% or less (almost no effect))
Wild oat [18]
  I: wild oat, herbicidal effect grade: 0 (Herbicidal rate of 5% or less (almost no effect))
Lambsquarters [19]; [26]
  Herbicidal effect by foliage application, O: lambsquarters: 5 (Herbicidal rate of 90% or more (almost completely withered))
Chickweed [20]; [26]
  Herbicidal effect by foliage application, P: chickweed: 5 (Herbicidal rate of 90% or more (almost completely withered))
Redroot pigweed [21]
  N: redroot pigweed, herbicidal effect grade: 5 (Herbicidal rate of 90% or more (almost completely withered))
Blackgrass [22]
  J: blackgrass, herbicidal effect grade: 0 (Herbicidal rate of 5% or less (almost no effect))
Persian speedwell [23]
  R: persian speedwell, herbicidal effect grade: 4 (Herbicidal rate of 70% or more and less than 90%)
Barnyard grass [24]
  herbicidal effect on barnyard grass (H): 3 (Herbicidal rate of 40% or more and less than 70%)
Green foxtail [25]
  G: green foxtail, herbicidal effect grade: 0 (Herbicidal rate of 5% or less (almost no effect))
